The results in this text go back to ChEMBL document CHEMBL3588744, “Structure-Based Optimization of Naphthyridones into Potent ATAD2 Bromodomain Inhibitors” (J Med Chem, 2015).

In one assay the target is Protein polybromo-1 (Homo sapiens, UniProt Q86U86). Kind of assay: Binding affinity to PBRM1 in human HUT78 cells incubated for 45 mins by mass spectrometry based bromosphere chemoproteomic assay. In kind it is cell-based.
The target of assay [1] is T1, Bromodomain-containing protein 2 (Homo sapiens, UniProt P25440). Kind of assay: Binding affinity to BRD2 containing BD2 bromodomains (unknown origin) by TR-FRET assay.
The target in assay [2] is T2, Bromodomain-containing protein 9 (Homo sapiens, UniProt Q9H8M2).
T2 sequence (Q9H8M2 whole entry): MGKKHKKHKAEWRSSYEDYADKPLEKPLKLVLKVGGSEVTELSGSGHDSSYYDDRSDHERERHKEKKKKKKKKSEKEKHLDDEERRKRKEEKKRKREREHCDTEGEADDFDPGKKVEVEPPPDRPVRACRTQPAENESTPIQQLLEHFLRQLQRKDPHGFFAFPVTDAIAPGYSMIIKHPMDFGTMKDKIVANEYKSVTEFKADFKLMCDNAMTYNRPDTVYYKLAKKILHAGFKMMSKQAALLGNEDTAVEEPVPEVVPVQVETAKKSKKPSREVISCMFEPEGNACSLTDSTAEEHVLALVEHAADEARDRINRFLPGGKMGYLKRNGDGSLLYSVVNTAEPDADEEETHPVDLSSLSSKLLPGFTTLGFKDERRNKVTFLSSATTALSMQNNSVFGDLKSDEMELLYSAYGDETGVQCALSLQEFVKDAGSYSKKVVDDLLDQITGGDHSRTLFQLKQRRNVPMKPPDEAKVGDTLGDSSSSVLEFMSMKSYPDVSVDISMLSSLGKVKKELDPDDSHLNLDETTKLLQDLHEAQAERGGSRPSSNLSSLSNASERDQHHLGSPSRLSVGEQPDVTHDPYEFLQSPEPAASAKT
Kind of assay: Binding affinity to BRD9 in human HUT78 cells incubated for 45 mins by mass spectrometry based bromosphere chemoproteomic assay. Type of assay: cell-based.

The target in assay [3] is T3, Peregrin (Homo sapiens, UniProt P55201).
T3 sequence (P55201 whole entry): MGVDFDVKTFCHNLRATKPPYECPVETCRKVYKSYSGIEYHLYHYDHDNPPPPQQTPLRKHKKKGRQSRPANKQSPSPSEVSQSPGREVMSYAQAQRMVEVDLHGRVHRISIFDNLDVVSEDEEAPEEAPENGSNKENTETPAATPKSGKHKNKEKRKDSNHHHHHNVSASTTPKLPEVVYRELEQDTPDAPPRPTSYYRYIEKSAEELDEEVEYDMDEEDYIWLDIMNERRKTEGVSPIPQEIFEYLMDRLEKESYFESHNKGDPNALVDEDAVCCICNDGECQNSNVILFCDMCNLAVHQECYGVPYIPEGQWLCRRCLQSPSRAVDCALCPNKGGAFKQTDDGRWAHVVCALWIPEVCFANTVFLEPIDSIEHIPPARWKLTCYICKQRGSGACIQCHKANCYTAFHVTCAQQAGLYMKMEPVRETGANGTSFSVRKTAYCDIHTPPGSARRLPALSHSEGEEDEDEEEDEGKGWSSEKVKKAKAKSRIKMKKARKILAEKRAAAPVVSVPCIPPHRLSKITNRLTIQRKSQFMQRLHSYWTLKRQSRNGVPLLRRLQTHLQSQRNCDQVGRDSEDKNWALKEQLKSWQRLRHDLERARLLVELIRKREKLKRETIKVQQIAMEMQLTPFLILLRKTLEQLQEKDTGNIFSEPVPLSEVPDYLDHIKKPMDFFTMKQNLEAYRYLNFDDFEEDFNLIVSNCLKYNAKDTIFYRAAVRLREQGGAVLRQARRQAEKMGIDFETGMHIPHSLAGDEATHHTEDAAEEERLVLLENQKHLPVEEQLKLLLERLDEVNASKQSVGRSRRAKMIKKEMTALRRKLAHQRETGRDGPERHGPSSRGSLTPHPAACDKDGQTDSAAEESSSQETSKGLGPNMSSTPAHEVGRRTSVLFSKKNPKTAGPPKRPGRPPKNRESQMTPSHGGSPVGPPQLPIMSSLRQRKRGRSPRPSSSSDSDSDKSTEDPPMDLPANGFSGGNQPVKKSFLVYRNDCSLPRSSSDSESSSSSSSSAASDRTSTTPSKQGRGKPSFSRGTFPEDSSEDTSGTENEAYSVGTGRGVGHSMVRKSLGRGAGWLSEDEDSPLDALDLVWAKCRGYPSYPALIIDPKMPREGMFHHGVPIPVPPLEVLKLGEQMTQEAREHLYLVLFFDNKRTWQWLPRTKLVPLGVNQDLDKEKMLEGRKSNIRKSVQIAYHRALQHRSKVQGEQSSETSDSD
Kind of assay: Binding affinity to BRPF1 (unknown origin) by BROMOscan panel based assay.

For assay [4], the target named is T4, Bromodomain testis-specific protein (Homo sapiens, UniProt Q58F21). As to the kind of experiment: Binding affinity to BRDt containing BD2 bromodomains (unknown origin) by TR-FRET assay.
For assay [5], the target named is T5, ATPase family AAA domain-containing protein 2B (Homo sapiens, UniProt Q9ULI0). As to the kind of experiment: Binding affinity to ATAD2B (unknown origin) by BROMOscan panel based assay.
The target in assay [6] is Histone acetyltransferase KAT2B (Homo sapiens, UniProt Q92831). As to the kind of experiment: Binding affinity to KAT2B in human HUT78 cells incubated for 45 mins by mass spectrometry based bromosphere chemoproteomic assay. In kind it is cell-based.
In assay [7] the target is T5, ATPase family AAA domain-containing protein 2B. As to the kind of experiment: Binding affinity to ATAD2B in human HUT78 cells incubated for 45 mins by mass spectrometry based bromosphere chemoproteomic assay. Type of assay: cell-based.
In assay [8] the target is T6, Bromodomain-containing protein 4 (Homo sapiens, UniProt O60885). Kind of assay: Binding affinity to BRD4 BD1 (unknown origin) by BROMOscan panel based assay.
For assay [9], the target named is Tyrosine-protein kinase BAZ1B (Homo sapiens, UniProt Q9UIG0). Kind of assay: Binding affinity to BAZ1B in human HUT78 cells incubated for 45 mins by mass spectrometry based bromosphere chemoproteomic assay. In kind it is cell-based.
In assay [10] the target is T3, Peregrin. As to the kind of experiment: Binding affinity to BRPF1 in human HUT78 cells incubated for 45 mins by mass spectrometry based bromosphere chemoproteomic assay. In kind it is cell-based.
Assay [11] addresses Bromodomain-containing protein 3 (Homo sapiens, UniProt Q15059). Kind of assay: Binding affinity to BRD3 in human HUT78 cells incubated for 45 mins by mass spectrometry based bromosphere chemoproteomic assay. Type of assay: cell-based.
The target in assay [12] is Transcription initiation factor TFIID subunit 1 (Homo sapiens, UniProt P21675). As to the kind of experiment: Binding affinity to TAF1 in human HUT78 cells incubated for 45 mins by mass spectrometry based bromosphere chemoproteomic assay. Type of assay: cell-based.
For assay [13], the target named is T4, Bromodomain testis-specific protein. As to the kind of experiment: Binding affinity to BRDt containing BD1 bromodomains (unknown origin) by TR-FRET assay.
For assay [14], the target named is Transcription initiation factor TFIID subunit 1-like (Homo sapiens, UniProt Q8IZX4). Kind of assay: Binding affinity to TAF1L (unknown origin) by BROMOscan panel based assay.
In assay [15] the target is T1, Bromodomain-containing protein 2. As to the kind of experiment: Binding affinity to BRD2 containing BD1 bromodomains (unknown origin) by TR-FRET assay.
For assay [16] the target is unchanged. Kind of assay: Binding affinity to BRD2 in human HUT78 cells incubated for 45 mins by mass spectrometry based bromosphere chemoproteomic assay. In kind it is cell-based.
The target in assay [17] is Chromatin remodeling regulator CECR2 (Homo sapiens, UniProt Q9BXF3). Kind of assay: Binding affinity to CECR2 (unknown origin) by BROMOscan panel based assay.
Assay [18] concerns the target T6, Bromodomain-containing protein 4. As to the kind of experiment: Binding affinity to BRD4 containing BD1 bromodomains (unknown origin) by TR-FRET assay.

SMILES strings stand for the structures. Bounds are passed on as bounds.

T1 sequence (P25440 whole entry): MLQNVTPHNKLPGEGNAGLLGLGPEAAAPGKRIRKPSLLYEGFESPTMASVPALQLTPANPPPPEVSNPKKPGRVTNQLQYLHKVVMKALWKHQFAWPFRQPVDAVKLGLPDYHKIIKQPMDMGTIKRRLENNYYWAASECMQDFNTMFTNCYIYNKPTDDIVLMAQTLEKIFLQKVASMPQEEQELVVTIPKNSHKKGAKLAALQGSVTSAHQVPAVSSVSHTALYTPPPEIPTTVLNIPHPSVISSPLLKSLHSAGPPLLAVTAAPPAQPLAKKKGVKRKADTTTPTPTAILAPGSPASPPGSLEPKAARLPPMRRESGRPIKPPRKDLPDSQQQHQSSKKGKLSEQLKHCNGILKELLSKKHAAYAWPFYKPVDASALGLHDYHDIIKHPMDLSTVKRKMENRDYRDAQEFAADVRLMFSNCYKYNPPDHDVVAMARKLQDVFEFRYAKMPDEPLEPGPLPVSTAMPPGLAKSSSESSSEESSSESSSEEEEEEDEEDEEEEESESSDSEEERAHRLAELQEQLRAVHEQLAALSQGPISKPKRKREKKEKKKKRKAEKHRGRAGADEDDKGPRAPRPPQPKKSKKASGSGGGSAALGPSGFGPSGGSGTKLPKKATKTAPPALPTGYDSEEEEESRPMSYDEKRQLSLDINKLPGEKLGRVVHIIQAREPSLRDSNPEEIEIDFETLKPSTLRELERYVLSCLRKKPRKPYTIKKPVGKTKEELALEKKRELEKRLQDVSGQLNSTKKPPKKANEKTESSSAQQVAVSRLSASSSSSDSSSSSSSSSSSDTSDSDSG
T5 sequence (Q9ULI0 whole entry, the tested form may be a part): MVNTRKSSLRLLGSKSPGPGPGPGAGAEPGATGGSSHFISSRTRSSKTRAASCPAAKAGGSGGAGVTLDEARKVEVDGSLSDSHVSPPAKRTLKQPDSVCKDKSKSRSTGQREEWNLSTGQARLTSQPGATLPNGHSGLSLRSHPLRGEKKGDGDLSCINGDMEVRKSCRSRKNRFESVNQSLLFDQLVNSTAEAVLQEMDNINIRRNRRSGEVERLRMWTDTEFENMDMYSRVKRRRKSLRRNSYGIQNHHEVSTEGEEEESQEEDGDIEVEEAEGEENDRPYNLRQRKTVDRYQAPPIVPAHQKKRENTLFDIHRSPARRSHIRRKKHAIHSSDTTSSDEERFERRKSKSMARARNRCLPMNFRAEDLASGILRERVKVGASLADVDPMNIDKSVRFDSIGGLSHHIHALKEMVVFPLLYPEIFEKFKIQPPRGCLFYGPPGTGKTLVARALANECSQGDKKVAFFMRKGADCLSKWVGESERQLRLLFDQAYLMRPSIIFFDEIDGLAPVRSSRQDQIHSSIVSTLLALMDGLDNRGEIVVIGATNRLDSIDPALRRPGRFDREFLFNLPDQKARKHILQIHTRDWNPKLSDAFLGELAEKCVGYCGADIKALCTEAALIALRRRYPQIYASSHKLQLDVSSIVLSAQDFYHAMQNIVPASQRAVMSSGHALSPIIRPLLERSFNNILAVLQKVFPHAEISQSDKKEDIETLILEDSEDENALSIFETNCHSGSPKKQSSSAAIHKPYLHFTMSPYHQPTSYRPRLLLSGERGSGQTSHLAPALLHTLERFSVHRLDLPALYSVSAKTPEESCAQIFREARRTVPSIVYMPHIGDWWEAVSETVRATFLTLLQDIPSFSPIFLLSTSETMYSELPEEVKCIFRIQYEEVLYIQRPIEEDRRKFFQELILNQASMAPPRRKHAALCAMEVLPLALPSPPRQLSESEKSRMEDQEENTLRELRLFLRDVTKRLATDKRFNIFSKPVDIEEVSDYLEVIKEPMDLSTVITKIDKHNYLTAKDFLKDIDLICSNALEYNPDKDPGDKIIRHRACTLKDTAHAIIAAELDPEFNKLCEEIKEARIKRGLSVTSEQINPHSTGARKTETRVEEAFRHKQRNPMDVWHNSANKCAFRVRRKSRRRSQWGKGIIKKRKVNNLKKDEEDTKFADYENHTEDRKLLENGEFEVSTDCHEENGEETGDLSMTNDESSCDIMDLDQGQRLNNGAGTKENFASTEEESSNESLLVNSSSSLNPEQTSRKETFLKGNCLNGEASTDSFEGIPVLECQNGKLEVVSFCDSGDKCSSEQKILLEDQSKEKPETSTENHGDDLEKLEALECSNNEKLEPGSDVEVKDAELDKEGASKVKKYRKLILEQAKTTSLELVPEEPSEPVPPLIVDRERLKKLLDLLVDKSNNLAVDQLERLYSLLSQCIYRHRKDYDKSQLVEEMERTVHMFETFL
Transcription initiation factor TFIID subunit 1-like, sequence (Q8IZX4 whole entry): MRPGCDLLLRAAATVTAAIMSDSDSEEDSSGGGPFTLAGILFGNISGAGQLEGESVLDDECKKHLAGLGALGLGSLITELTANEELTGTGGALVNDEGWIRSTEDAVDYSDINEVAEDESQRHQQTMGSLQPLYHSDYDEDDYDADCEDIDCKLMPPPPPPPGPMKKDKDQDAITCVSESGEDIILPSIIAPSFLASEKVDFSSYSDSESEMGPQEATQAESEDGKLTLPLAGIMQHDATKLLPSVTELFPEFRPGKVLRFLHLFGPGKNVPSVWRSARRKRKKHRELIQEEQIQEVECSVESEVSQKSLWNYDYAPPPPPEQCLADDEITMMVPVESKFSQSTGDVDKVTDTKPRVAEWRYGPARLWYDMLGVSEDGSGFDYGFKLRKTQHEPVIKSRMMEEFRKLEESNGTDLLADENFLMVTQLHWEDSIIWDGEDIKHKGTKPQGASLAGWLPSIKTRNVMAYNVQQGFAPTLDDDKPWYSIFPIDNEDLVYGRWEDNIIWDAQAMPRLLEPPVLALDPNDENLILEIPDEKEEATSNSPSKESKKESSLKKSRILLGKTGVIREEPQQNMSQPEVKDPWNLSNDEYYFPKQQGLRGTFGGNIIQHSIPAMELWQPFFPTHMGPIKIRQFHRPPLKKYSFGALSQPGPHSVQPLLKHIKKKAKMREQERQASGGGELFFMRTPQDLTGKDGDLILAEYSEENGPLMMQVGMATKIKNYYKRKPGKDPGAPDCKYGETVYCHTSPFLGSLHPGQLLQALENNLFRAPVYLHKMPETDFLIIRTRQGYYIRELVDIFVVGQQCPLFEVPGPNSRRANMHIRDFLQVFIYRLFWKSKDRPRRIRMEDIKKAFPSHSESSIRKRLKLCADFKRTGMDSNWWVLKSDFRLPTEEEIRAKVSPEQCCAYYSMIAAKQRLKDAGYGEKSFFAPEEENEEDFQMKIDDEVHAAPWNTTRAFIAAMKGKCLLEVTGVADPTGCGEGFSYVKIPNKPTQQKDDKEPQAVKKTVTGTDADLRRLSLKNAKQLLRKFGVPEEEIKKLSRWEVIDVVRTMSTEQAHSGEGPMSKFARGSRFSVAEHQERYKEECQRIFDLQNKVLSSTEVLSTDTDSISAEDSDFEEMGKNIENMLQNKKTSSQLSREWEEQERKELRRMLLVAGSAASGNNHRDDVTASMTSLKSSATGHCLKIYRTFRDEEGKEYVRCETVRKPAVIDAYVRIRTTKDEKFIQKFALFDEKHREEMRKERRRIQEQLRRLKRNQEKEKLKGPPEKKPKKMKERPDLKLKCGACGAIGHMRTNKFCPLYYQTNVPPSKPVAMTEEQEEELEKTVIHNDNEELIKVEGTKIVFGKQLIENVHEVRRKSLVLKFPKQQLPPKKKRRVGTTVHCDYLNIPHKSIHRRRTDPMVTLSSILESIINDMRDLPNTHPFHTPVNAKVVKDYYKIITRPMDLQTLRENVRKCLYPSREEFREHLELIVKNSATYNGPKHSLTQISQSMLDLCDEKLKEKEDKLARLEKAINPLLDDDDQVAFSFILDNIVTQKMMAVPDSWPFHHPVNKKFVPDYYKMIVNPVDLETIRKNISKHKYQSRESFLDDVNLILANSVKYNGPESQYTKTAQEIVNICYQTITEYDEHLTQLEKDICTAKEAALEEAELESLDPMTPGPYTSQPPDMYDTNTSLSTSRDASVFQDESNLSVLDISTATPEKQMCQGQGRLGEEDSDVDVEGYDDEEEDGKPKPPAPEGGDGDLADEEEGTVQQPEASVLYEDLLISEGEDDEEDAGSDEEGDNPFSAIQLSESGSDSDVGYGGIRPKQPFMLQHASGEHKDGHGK
Bromodomain-containing protein 3, sequence (Q15059 whole entry): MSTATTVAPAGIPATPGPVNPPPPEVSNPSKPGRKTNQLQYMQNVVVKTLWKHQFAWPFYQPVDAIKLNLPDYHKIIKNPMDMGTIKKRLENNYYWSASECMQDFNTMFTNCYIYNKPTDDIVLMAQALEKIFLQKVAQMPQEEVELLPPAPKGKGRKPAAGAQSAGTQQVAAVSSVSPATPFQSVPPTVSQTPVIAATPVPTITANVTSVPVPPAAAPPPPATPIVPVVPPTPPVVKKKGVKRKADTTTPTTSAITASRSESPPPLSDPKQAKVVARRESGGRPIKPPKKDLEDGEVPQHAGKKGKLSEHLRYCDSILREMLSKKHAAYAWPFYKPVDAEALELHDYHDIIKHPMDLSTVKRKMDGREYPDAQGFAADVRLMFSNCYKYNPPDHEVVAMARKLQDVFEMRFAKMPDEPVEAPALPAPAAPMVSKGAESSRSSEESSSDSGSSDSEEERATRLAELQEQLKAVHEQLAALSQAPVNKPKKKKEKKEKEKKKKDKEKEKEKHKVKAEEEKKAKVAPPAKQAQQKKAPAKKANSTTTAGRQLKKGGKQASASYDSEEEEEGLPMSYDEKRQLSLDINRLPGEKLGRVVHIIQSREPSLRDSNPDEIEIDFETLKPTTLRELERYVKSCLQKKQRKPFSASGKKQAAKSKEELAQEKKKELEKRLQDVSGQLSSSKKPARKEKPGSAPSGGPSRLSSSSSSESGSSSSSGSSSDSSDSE

As for `Cc1cncc(-c2cnc(N[C@@H]3CCN(C)C[C@H]3OCC3CCS(=O)(=O)CC3)c3[nH]c(=O)c(C)cc23)c1`, the Kd on Protein polybromo-1 was more than 100 µM; in assay [2], 15.8 µM; in assay [6] it was more than 100 µM; in assay [7], 0.1 µM; in [9] it was more than 100 µM; on Peregrin [10], more than 100 µM. Further, the Kd in [11] is more than 100 µM; in assay [12], 1.26 µM; in assay [16] it was 20 µM. Also, the IC50 in assay [1] is more than 50.1 µM; in assay [4], more than 50.1 µM; in assay [13], more than 50.1 µM; in assay [15], more than 50.1 µM; in [18] it was 79.4 µM. The Ki on Peregrin [3] is 5.01 µM; in [5] it was 0.0398 µM; in assay [8] it was 7.94 µM; in assay [14], 0.126 µM; in assay [17], 0.794 µM.
